The results in this text go back to patent US10798941B2, “Microbiocidal oxadiazole derivatives” (SYNGENTA PARTICIPATIONS AG, priority 2016, dated 2020).

Test [1] deals with Puccinia recondita f. Sp. Tritici. Description: Puccinia recondita f. sp. tritici / wheat / leaf disc preventative (brown rust). In kind it is in vivo. To be noted: foliar, 168 h, 200 ppm in the applied formulation, wheat leaf segments cv. Kanzler, preventative, inoculated 1 day after application, assessed 7 to 9 days after application, vs untreated, read-out: disease control. The procedure, abridged:
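Preventative leaf-segment test: spray application of diluted formulated compound on wheat cv. Kanzler, spore inoculation after 1 day. Percent control relative to untreated segments rated 7 to 9 days post-application, with incubation at 19° C, 75% relative humidity, 12 h photoperiod.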

Test [2] deals with Phakopsora pachyrhizi. Put plainly: Phakopsora pachyrhizi / soybean / leaf disc preventative (Asian soybean rust). The class given is in vivo. To be noted: foliar, 288 h, 200 ppm in the applied formulation, soybean leaf disks, inoculated one day after application, assessed 12 to 14 days after application, vs untreated, read-out: disease control. How it is done: Leaf disks or leaf segments of various plant species are cut from plants grown in a greenhouse. The cut leaf disks or segments are placed in multiwell plates (24-well format) onto water agar. The leaf disks are sprayed with a test solution before (preventative) or after (curative) inoculation. Compounds to be tested are prepared as DMSO solutions (max. 10 mg/ml) which are diluted to the appropriate concentration with 0.025% Tween20 just before spraying. The inoculated leaf disks or segments are incubated under defined conditions (temperature, relative humidity, light, etc.) according to the respective test system. A single evaluation of disease level is carried out 3 to 14 days after inoculation, depending on the pathosystem. Percent disease control relative to the untreated check leaf disks or segments is then calculated.
Soybean leaf disks are placed on water agar in multiwell plates (24-well format) and sprayed with the formulated test compound diluted in water. One day after application leaf discs are inoculated by spraying a spore suspension on the lower leaf surface. After an incubation period in a climate cabinet of 24-36 hours in darkness at 20° C. and 75% rh leaf disc are kept at 20° C. with 12 h light/day and 75% rh. The activity of a compound is assessed as percent disease control compared to untreated when an appropriate level of disease damage appears in untreated check leaf disks (12 to 14 days after application).
The following compounds at 200 ppm in the applied formulation give at least 80% disease control in this test when compared to untreated control leaf disks under the same conditions, which show extensive disease development.

For test [3], the system named is Glomerella Lagenarium (Colletotrichum Lagenarium). Put plainly: Glomerella lagenarium (Colletotrichum lagenarium) liquid culture / cucumber / preventative (anthracnose). The class given is cell-based. To be noted: Colletotrichum orbiculare; 20 ppm in the applied formulation; liquid culture in PDB, 24° C., inhibition of growth measured photometrically 3 to 4 days after application, vs untreated; read-out: disease control. The method in brief: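 Conidia from cryogenic storage were mixed into potato dextrose broth. This was added to compound diluted from DMSO into 0.025% Tween20, tested at 20 ppm. Plates were incubated in the dark at 24 °C and 96% relative humidity, and growth was read photometrically after 2–7 days as % activity versus untreated check.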

For `FC(F)(F)c1ccn(Cc2ccc(-c3noc(C(F)(F)F)n3)cc2)n1` [Compound 1.21, 5-(trifluoromethyl)-3-[4-[[3-(trifluoromethyl)pyrazol-1-yl]methyl]phenyl]-1,2,4-oxadiazole], the pest or weed control at 200 ppm in test [1] and in test [2] was not below 80% each time. Also, the inhibition of growth at 20 ppm in test [3] was not below 80%.

In the case of `CC(=O)c1cccn1Cc1ccc(-c2noc(C(F)(F)F)n2)cc1` [Compound 1.59, 1-[1-[[4-[5-(trifluoromethyl)-1,2,4-oxadiazol-3-yl]phenyl]methyl]pyrrol-2-yl]ethanone], the pest or weed control at 200 ppm in test [2] is not below 80%. The inhibition of growth at 20 ppm in test [3] was not below 80%.

For `FC(F)(F)c1nc(-c2ccc(Cn3nnnc3-c3ccccc3Br)cc2)no1` [Compound 1.152, 3-[4-[[5-(2-bromophenyl)tetrazol-1-yl]methyl]phenyl]-5-(trifluoromethyl)-1,2,4-oxadiazole], the pest or weed control at 200 ppm in test [2] was not below 80%. In addition, the inhibition of growth at 20 ppm in test [3] is not below 80%.

As to `N#Cc1cc2n(Cc3ccc(-c4noc(C(F)(F)F)n4)cc3)cccc-2n1` [Compound 1.157, 4-[[4-[5-(trifluoromethyl)-1,2,4-oxadiazol-3-yl]phenyl]methyl]pyrrolo[3,2-b]pyridine-2-carbonitrile], the pest or weed control at 200 ppm in test [1] and in test [2] was not below 80% in each case. For the same compound, in test [3], the inhibition of growth at 20 ppm was not below 80%.

Turning to `N#Cc1cc2ncccc2n1Cc1ccc(-c2noc(C(F)(F)F)n2)cc1` [Compound 1.158, 1-[[4-[5-(trifluoromethyl)-1,2,4-oxadiazol-3-yl]phenyl]methyl]pyrrolo[3,2-b]pyridine-2-carbonitrile], the pest or weed control at 200 ppm in test [1] and in test [2] was not below 80% throughout. The inhibition of growth at 20 ppm in test [3] is not below 80%.

Consider `Cc1cc(O)nn1Cc1ccc(-c2noc(C(F)(F)F)n2)cc1` [Compound 1.171, 5-methyl-1-[[4-[5-(trifluoromethyl)-1,2,4-oxadiazol-3-yl]phenyl]methyl]pyrazol-3-ol], for which the pest or weed control at 200 ppm in test [1] and in test [2] was not below 80% in each case. Also, in test [3], the inhibition of growth at 20 ppm is not below 80%.

Regarding `CCOC(=O)c1ccc2c(c1)nnn2Cc1ccc(-c2noc(C(F)(F)F)n2)cc1` [Compound 1.184, ethyl 1-[[4-[5-(trifluoromethyl)-1,2,4-oxadiazol-3-yl]phenyl]methyl]benzotriazole-5-carboxylate], in test [2], the pest or weed control at 200 ppm is not below 80%. Moreover, the inhibition of growth at 20 ppm in test [3] was not below 80%.

In the case of `CCOC(=O)c1ccc2nn(Cc3ccc(-c4noc(C(F)(F)F)n4)cc3)nc2c1` [Compound 1.185, ethyl 2-[[4-[5-(trifluoromethyl)-1,2,4-oxadiazol-3-yl]phenyl]methyl]benzotriazole-5-carboxylate], the pest or weed control at 200 ppm in test [2] is not below 80%. Also, the inhibition of growth at 20 ppm in test [3] is not below 80%.

Take `CCOC(=O)c1cc(C2CC2)n(Cc2ccc(-c3noc(C(F)(F)F)n3)cc2)n1` [Compound 1.186, ethyl 5-cyclopropyl-1-[[4-[5-(trifluoromethyl)-1,2,4-oxadiazol-3-yl]phenyl]methyl]pyrazole-3-carboxylate]: the pest or weed control at 200 ppm in test [1] and in test [2] was not below 80% throughout. The inhibition of growth at 20 ppm in test [3] is not below 80%.

Turning to `Cc1nc2ccc(C(F)(F)F)cc2n1Cc1ccc(-c2noc(C(F)(F)F)n2)cc1` [Compound 1.190, 3-[4-[[2-methyl-6-(trifluoromethyl)benzimidazol-1-yl]methyl]phenyl]-5-(trifluoromethyl)-1,2,4-oxadiazole], in test [2], the pest or weed control at 200 ppm is not below 80%. Besides, the inhibition of growth at 20 ppm in test [3] was not below 80%.

Consider `COC(=O)c1cccc2c1cnn2Cc1ccc(-c2noc(C(F)(F)F)n2)cc1` [Compound 1.193, methyl 1-[[4-[5-(trifluoromethyl)-1,2,4-oxadiazol-3-yl]phenyl]methyl]indazole-4-carboxylate], for which the pest or weed control at 200 ppm in test [1] and in test [2] was not below 80% throughout. Also, the inhibition of growth at 20 ppm in test [3] was not below 80%.

In the case of `N#Cc1nn(Cc2ccc(-c3noc(C(F)(F)F)n3)cc2)c2cc(F)ccc12` [Compound 1.194, 6-fluoro-1-[[4-[5-(trifluoromethyl)-1,2,4-oxadiazol-3-yl]phenyl]methyl]indazole-3-carbonitrile], the pest or weed control at 200 ppm in test [2] is not below 80%. The inhibition of growth at 20 ppm in test [3] was not below 80%.

For `FC(F)(F)c1cc(Cl)c2nnn(Cc3ccc(-c4noc(C(F)(F)F)n4)cc3)c2c1` [Compound 1.195, 3-[4-[[4-chloro-6-(trifluoromethyl)benzotriazol-1-yl]methyl]phenyl]-5-(trifluoromethyl)-1,2,4-oxadiazole], in test [2], the pest or weed control at 200 ppm was not below 80%.

Turning to `Cc1ccc2c(nnn2Cc2ccc(-c3noc(C(F)(F)F)n3)cc2)c1C` [Compound 1.198, 3-[4-[(4,5-dimethylbenzotriazol-1-yl)methyl]phenyl]-5-(trifluoromethyl)-1,2,4-oxadiazole], in test [2], the pest or weed control at 200 ppm is not below 80%. Also, the inhibition of growth at 20 ppm in test [3] is not below 80%.

`Cc1ccc(-c2nnnn2Cc2ccc(-c3noc(C(F)(F)F)n3)cc2)cc1` [Compound 1.201, 3-[4-[[5-(p-tolyl)tetrazol-1-yl]methyl]phenyl]-5-(trifluoromethyl)-1,2,4-oxadiazole]: in test [2], the pest or weed control at 200 ppm is not below 80%.

Consider `CCOC(=O)c1cn(Cc2ccc(-c3noc(C(F)(F)F)n3)cc2)nc1C(F)F` [Compound 1.204, ethyl 3-(difluoromethyl)-1-[[4-[5-(trifluoromethyl)-1,2,4-oxadiazol-3-yl]phenyl]methyl]pyrazole-4-carboxylate], for which the pest or weed control at 200 ppm in test [1] and in test [2] was not below 80% each time. The inhibition of growth at 20 ppm in test [3] is not below 80%.

For the compound `CCOC(=O)c1cnn(Cc2ccc(-c3noc(C(F)(F)F)n3)cc2)c1C(F)F` [Compound 1.205, ethyl 5-(difluoromethyl)-1-[[4-[5-(trifluoromethyl)-1,2,4-oxadiazol-3-yl]phenyl]methyl]pyrazole-4-carboxylate], in test [2], the pest or weed control at 200 ppm was not below 80%. Besides, the inhibition of growth at 20 ppm in test [3] is not below 80%.

For the compound `FC(F)(F)c1nc(-c2ccc(Cn3cnc(SCc4ccccc4)n3)cc2)no1` [Compound 1.212, 3-[4-[(3-benzylsulfanyl-1,2,4-triazol-1-yl)methyl]phenyl]-5-(trifluoromethyl)-1,2,4-oxadiazole], the pest or weed control at 200 ppm in test [1] and in test [2] was not below 80% in each case. In addition, the inhibition of growth at 20 ppm in test [3] is not below 80%.

For `COc1ccc(-c2cc(C=O)n(Cc3ccc(-c4noc(C(F)(F)F)n4)cc3)n2)cc1` [Compound 1.223, 5-(4-methoxyphenyl)-2-[[4-[5-(trifluoromethyl)-1,2,4-oxadiazol-3-yl]phenyl]methyl]pyrazole-3-carbaldehyde], the pest or weed control at 200 ppm in test [2] was not below 80%. The inhibition of growth at 20 ppm in test [3] is not below 80%.

As to `CCCc1c(C(=O)OCC)ncn1Cc1ccc(-c2noc(C(F)(F)F)n2)cc1` [Compound 1.224, ethyl 5-propyl-1-[[4-[5-(trifluoromethyl)-1,2,4-oxadiazol-3-yl]phenyl]methyl]imidazole-4-carboxylate], the pest or weed control at 200 ppm in test [1] and in test [2] was not below 80% in each case. Further, in test [3], the inhibition of growth at 20 ppm was not below 80%.

Turning to `O=Cc1ccc(-c2nnn(Cc3ccc(-c4noc(C(F)(F)F)n4)cc3)n2)cc1` [Compound 1.227, 4-[2-[[4-[5-(trifluoromethyl)-1,2,4-oxadiazol-3-yl]phenyl]methyl]tetrazol-5-yl]benzaldehyde], in test [2], the pest or weed control at 200 ppm was not below 80%. Moreover, in test [3], the inhibition of growth at 20 ppm was not below 80%.

For the compound `N#Cc1nn(Cc2ccc(-c3noc(C(F)(F)F)n3)cc2)c2ccccc12` [Compound 1.228, 1-[[4-[5-(trifluoromethyl)-1,2,4-oxadiazol-3-yl]phenyl]methyl]indazole-3-carbonitrile], the pest or weed control at 200 ppm in test [2] is not below 80%. Besides, the inhibition of growth at 20 ppm in test [3] was not below 80%.

On to `FC(F)(F)c1nc(-c2ccc(Cn3nnnc3-c3ccc(Cl)cc3)cc2)no1` [Compound 1.230, 3-[4-[[5-(4-chlorophenyl)tetrazol-1-yl]methyl]phenyl]-5-(trifluoromethyl)-1,2,4-oxadiazole], for which the pest or weed control at 200 ppm in test [2] was not below 80%.
